Reference: publication PMC9607330, “Cell Cycle Arrest and Apoptosis-Inducing Ability of Benzimidazole Derivatives: Design, Synthesis, Docking, and Biological Evaluation” (Molecules, 2022)

Legend:
A549 cells [1] = assay: MTT antiproliferative assay, A549; format: cell-based, human; conditions: for IC50: Homo sapiens, MTT, A549 (lung), mean ± SD of three experiments; for times more active than doxorubicin: A549, ratio of IC50 values
Excerpt: (§1) adenocarcinoma) cell lines.
(§2) supplied to that same media.
(§3) carbon dioxide. […] The positive
(§4) (FluoStar Omega (BMG Labtec, Ortenberg, Germany).

SKOV3 cells [2] = assay: MTT antiproliferative assay, SKOV3; format: cell-based, human; conditions: for IC50: Homo sapiens, SK-OV-3, MTT, SKOV3 (ovarian), mean ± SD of three experiments; for fold better activity than doxorubicin: SKOV3, ratio of IC50 values
Excerpt: as §1, §2, §3, §4

MDA-MB-231 cells [3] = assay: MTT antiproliferative assay, MDA-MB-231; conditions: for IC50: read-out: IC50 (μM) MDA-MB231, MTT, MDA-MB-231 (breast), mean ± SD of three experiments; for fold increase in cytotoxicity versus doxorubicin: MDA-MB-231, ratio of IC50 values
Procedure: Doxorubicin was used as a standard anticancer drug.
The cytotoxicity was assessed using the MTT method, according to our previously reported work [32]. The cell lines were purchased from American Type Culture Collection (ATCC).
FBS (10%) and 100 units/mL PS (penicillin/streptomycin) were
supplied to that same media. The cells incubated at 37 °C in a humidified environment with 5%

EGFR kinase = EGFR kinase (Homo sapiens, UniProt P00533); assay: In vitro EGFR inhibitory activity; format: biochemical
Procedure: EGFR inhibitory activity was assayed according to the reported method.

A549 cells [4] = assay: Apoptosis, annexin V-FITC/PI flow cytometry, A549; format: cell-based, human; conditions: for early apoptosis: A549; for late apoptosis / necrosis: A549, result in words
Procedure: (§5) The apoptosis studies regarding compounds 10 and 13 using annexin V-FITC/PI staining was also examined by flow cytometry.
as §1, §2, §3, §4
(§6) delivered to cancer cells for 48 hours. A549, MDA,MB 231 and SKOV3 cells were then
(§7) Technology (CST) and incubated for 15 minutes. Fluorescence activated cell sorting analysis
(§8) of cell cycle phases for each sample [37].

A549 cells [5] = assay: Cell cycle distribution, propidium iodide flow cytometry, A549; format: cell-based, human; conditions: for cell cycle arrest phase: A549; for cell distribution in G2 phase / cell distribution in G1 phase / cell distribution in S phase: A549, treated at IC50 for 48 h; for cell distribution in G2 phase: control 29.13 ± 2.31%; for cell distribution in G1 phase: control 32.88 ± 2.04%; for cell distribution in S phase: control 38.48 ± 3.71%
Procedure: (§9) The most promising compounds (10 and 13) were explored for cell cycle distribution to determine the intracellular mode of action of these compounds. […] In the present study, compounds 10 and 13 arrest different cell cycle phases in A549, MDA-MB 231, and SKOV3 cancer cells. […] However, compound 10 arrests the G2/S phase in both MDA-MB 231 and SKOV3, while it arrests the G1/G2 phases in lung A549 carcinoma.
(§10) The analysis was performed according to our previously published work.
as §1, §2, §3, §4, §6, §7, §8

MDA-MB-231 cells [6] = assay: Cell cycle distribution, propidium iodide flow cytometry, MDA-MB-231; format: cell-based, human; conditions: for cell cycle arrest phase: MDA-MB-231; for cell distribution in G1 phase / cell distribution in S phase / cell distribution in G2 phase: MDA-MB-231, treated at IC50 for 48 h; for cell distribution in G1 phase: control 28.51 ± 2.09%; for cell distribution in S phase: control 35.51 ± 2.10%; for cell distribution in G2 phase: control 35.96 ± 1.97%
Procedure: as §9, §10, §1, §2, §3, §4, §6, §7, §8

SKOV3 cells [7] = assay: Apoptosis, annexin V-FITC/PI flow cytometry, SKOV3; format: cell-based, human
Procedure: as §5, §1, §2, §3, §4, §6, §7, §8

MDA-MB-231 cells [8] = assay: Apoptosis, annexin V-FITC/PI flow cytometry, MDA-MB-231; format: cell-based, human; conditions: for early apoptosis / late apoptosis: MDA-MB-231
Procedure: as §5, §1, §2, §3, §4, §6, §7, §8

SKOV3 cells [9] = assay: Cell cycle distribution, propidium iodide flow cytometry, SKOV3; format: cell-based, human; conditions: for cell cycle arrest phase: SKOV3; for cell distribution in G1 phase / cell distribution in G2 phase / cell distribution in S phase: SKOV3, treated at IC50 for 48 h; for cell distribution in G1 phase: control 31.03 ± 1.86%; for cell distribution in G2 phase: control 34.23 ± 1.38%; for cell distribution in S phase: control 34.72 ± 1.80%
Procedure: as §9, §10, §1, §2, §3, §4, §6, §7, §8

hepatocellular carcinoma = conditions: cited from earlier work
[10] = tested on: non-small cell lung cancer (NSCLC); conditions: cited from earlier work
esophageal cancer = conditions: cited from earlier work

Chain of EGFR kinase (P00533 25-1210): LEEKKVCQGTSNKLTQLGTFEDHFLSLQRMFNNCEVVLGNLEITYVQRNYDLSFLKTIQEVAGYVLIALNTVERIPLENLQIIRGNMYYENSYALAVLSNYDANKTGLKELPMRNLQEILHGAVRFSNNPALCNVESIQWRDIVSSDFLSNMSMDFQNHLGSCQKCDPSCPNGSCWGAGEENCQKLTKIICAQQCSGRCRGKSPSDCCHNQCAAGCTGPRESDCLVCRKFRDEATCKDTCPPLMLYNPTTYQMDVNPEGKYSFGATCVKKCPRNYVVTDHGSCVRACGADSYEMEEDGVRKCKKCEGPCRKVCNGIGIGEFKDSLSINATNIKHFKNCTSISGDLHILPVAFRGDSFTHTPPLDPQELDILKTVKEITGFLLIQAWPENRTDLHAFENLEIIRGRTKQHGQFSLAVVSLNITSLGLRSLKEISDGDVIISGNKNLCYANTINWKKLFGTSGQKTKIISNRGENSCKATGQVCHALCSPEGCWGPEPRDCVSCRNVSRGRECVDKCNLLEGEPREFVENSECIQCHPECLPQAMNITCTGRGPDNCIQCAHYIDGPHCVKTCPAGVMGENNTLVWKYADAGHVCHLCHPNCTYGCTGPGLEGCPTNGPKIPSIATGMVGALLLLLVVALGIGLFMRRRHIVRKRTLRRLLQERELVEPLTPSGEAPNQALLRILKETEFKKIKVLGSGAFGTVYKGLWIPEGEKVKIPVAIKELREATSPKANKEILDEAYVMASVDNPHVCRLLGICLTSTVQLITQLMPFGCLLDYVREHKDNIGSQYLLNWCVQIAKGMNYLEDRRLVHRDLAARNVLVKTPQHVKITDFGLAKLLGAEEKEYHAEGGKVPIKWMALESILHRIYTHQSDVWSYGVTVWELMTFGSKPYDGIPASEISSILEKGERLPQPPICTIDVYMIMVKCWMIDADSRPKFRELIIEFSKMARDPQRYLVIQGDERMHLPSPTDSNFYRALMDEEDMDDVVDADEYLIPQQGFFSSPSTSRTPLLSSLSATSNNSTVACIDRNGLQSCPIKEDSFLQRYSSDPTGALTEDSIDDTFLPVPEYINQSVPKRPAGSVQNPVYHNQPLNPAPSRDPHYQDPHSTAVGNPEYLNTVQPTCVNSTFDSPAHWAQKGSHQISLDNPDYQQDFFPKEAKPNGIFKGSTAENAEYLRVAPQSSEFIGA

## Fc1ccc(-n2cc(CSc3nnc(Cn4c(-c5ccc(Cl)cc5Cl)nc5ccccc54)o3)nn2)cc1 [Compound 8, 2-{[2-(2,4-Dichlorophenyl)-1H-benzo[d]imidazol-1-yl]methyl}-5-({[1-(4-Fluorophenyl)-1H-1,2,3-triazol-4-yl]methyl}thio)-1,3,4-oxadiazole]
A549 cells [1]
  IC50: 26.7 ± 1.26 µM
other
  melting point: 110 to 112 °C
SKOV3 cells [2]
  IC50: 17.7 ± 0.68 µM
MDA-MB-231 cells [3]
  IC50: 15.5 ± 1.64 µM

## Clc1ccc(-c2nc3ccccc3n2Cc2nnc(SCc3cn(-c4cccc(Br)c4)nn3)o2)c(Cl)c1 [Compound 9, 2-({[1-(3-Bromophenyl)-1H-1,2,3-triazol-4-yl]methyl}thio)-5-{[2-(2,4-Dichlorophenyl)-1H-benzo[d]imidazol-1-yl]methyl}-1,3,4-oxadiazole]
EGFR kinase
  IC50: 0.95 ± 0.023 µM
A549 cells [1]
  IC50: 17.4 ± 0.54 µM
other
  melting point: 180 to 182 °C
SKOV3 cells [2]
  IC50: 13.6 ± 0.71 µM
MDA-MB-231 cells [3]
  IC50: 10.9 ± 0.58 µM

## Oc1ccccc1-n1cc(CSc2nnc(Cn3c(-c4ccc(Cl)cc4Cl)nc4ccccc43)o2)nn1 [Compound 10, 2-(4-{[(5-{[2-(2,4-Dichlorophenyl)-1H-benzo[d]imidazol-1-yl]methyl}-1,3,4-oxadiazol-2-yl)thio]methyl}-1H-1,2,3-triazol-1-yl)phenol]
A549 cells [4]
  early apoptosis: 55.1%
  late apoptosis: no late apoptosis
  necrosis: no late apoptosis or necrosis
EGFR kinase
  IC50: 0.33 ± 0.051 µM
A549 cells [5]
  cell cycle arrest phase: G1 and G2 phases
  cell distribution in G2 phase: 33.01 ± 2.28%
  cell distribution in G1 phase: 34.66 ± 2.80%
  cell distribution in S phase: 32.32 ± 1.51%
A549 cells [1]
  times more active than doxorubicin: 1.76 times
  IC50: 3.31 ± 0.14 µM
MDA-MB-231 cells [6]
  cell cycle arrest phase: S and G2 phases
  cell distribution in G1 phase: 17.58 ± 1.45%
  cell distribution in S phase: 37.82 ± 2.57%
  cell distribution in G2 phase: 44.58 ± 3.03%
SKOV3 cells [7]
  early apoptosis: 58.5%
MDA-MB-231 cells [8]
  early apoptosis: 69.7%
  late apoptosis: 3.2%
MDA-MB-231 cells [8]; MDA-MB-231, result in words
  necrosis: without any necrosis
SKOV3 cells [9]
  cell cycle arrest phase: G2/S phase
  cell distribution in G1 phase: 16.15 ± 2.11%
  cell distribution in G2 phase: 48.73± 1.89%
  cell distribution in S phase: 35.11 ± 1.21%
SKOV3 cells [2]
  IC50: 6.98 ± 0.28 µM
  fold better activity than doxorubicin: 1.23 fold
MDA-MB-231 cells [3]
  fold increase in cytotoxicity versus doxorubicin: 4.0 fold
  IC50: 1.18 ± 0.68 µM

## Cc1ccccc1-n1cc(CSc2nnc(Cn3c(-c4ccc(Cl)cc4Cl)nc4ccccc43)o2)nn1 [Compound 11, 2-{[2-(2,4-Dichlorophenyl)-1H-benzo[d]imidazol-1-yl]methyl}-5-({[1-(o-tolyl)-1H-1,2,3-triazol-4-yl]methyl}thio)-1,3,4-oxadiazole]
A549 cells [1]
  IC50: 43.8 ± 0.87 µM
other
  melting point: 152 to 153 °C
SKOV3 cells [2]
  IC50: 25.7 ± 1.16 µM
MDA-MB-231 cells [3]
  IC50: 36.7 ± 0.75 µM

## Clc1ccc(-c2nc3ccccc3n2Cc2nnc(SCc3cn(-c4ccc(Cl)cc4Cl)nn3)o2)c(Cl)c1 [Compound 12, 2-({[1-(2,4-Dichlorophenyl)-1H-1,2,3-triazol-4-yl]methyl}thio)-5-{[2-(2,4-Dichlorophenyl)-1H-benzo[d]imidazol-1-yl]methyl}-1,3,4-oxadiazole]
A549 cells [1]
  IC50: 37.1 ± 0.67 µM
other
  melting point: 100 to 102 °C
SKOV3 cells [2]
  IC50: 33.6 ± 0.91 µM
MDA-MB-231 cells [3]
  IC50: 25.2 ± 1.82 µM

## O=C(CSc1nnc(Cn2c(-c3ccc(Cl)cc3Cl)nc3ccccc32)o1)Nc1ccc(F)cc1 [Compound 13, 2-[(5-{[2-(2,4-Dichlorophenyl)-1H-benzo[d]imidazol-1-yl]methyl}-1,3,4-oxadiazol-2-yl)thio]-N-(4-Fluorophenyl)acetamide]
A549 cells [4]
  early apoptosis: 66.4%
  late apoptosis: no late apoptosis
  necrosis: no late apoptosis or necrosis
EGFR kinase
  IC50: 0.38 ± 0.022 µM
A549 cells [5]
  cell cycle arrest phase: G1 phase
  cell distribution in G2 phase: 24.64 ± 2.52%
  cell distribution in G1 phase: 36.34 ± 2.19%
  cell distribution in S phase: 38.99 ± 1.67%
A549 cells [1]
  times more active than doxorubicin: 1.1 times
  IC50: 5.3 ± 0.44 µM
MDA-MB-231 cells [6]
  cell cycle arrest phase: G1 and S phases
  cell distribution in G1 phase: 34.88 ± 3.09%
  cell distribution in S phase: 41.14 ± 1.34%
  cell distribution in G2 phase: 23.97 ± 2.93%
SKOV3 cells [7]
  early apoptosis: 76.2%
  late apoptosis: 21.7%
MDA-MB-231 cells [8]
  early apoptosis: 80.24%
  late apoptosis: 5.4%
SKOV3 cells [9]
  cell cycle arrest phase: only the S phase
  cell distribution in G1 phase: 25.38 ± 0.44%
  cell distribution in G2 phase: 28.65 ± 1.73%
  cell distribution in S phase: 45.93 ± 1.78%
SKOV3 cells [2]
  IC50: 4.35 ± 0.38 µM
  fold better activity than doxorubicin: 1.98 fold
MDA-MB-231 cells [3]
  fold increase in cytotoxicity versus doxorubicin: 1.64 fold
  IC50: 2.9 ± 0.53 µM

## O=C(CSc1nnc(Cn2c(-c3ccc(Cl)cc3Cl)nc3ccccc32)o1)Nc1ccc(F)cc1F [Compound 14, 2-[(5-{[2-(2,4-Dichlorophenyl)-1H-benzo[d]imidazol-1-yl]methyl}-1,3,4-oxadiazol-2-yl)thio]-N-(2,4-Difluorophenyl)acetamide]
EGFR kinase
  IC50: 1.21 ± 0.047 µM
A549 cells [1]
  IC50: 11.6 ± 0.29 µM
other
  melting point: 212 to 214 °C
SKOV3 cells [2]
  IC50: 12.8 ± 0.53 µM
MDA-MB-231 cells [3]
  IC50: 20.9 ± 0.24 µM

## O=C(CSc1nnc(Cn2c(-c3ccc(Cl)cc3Cl)nc3ccccc32)o1)Nc1ccc(Br)cc1 [Compound 15, N-(4-Bromophenyl)-2-[(5-{[2-(2,4-Dichlorophenyl)-1H-benzo[d]imidazol-1-yl]methyl}-1,3,4-oxadiazol-2-yl)thio]acetamide]
A549 cells [1]
  IC50: 20.6 ± 1.41 µM
other
  melting point: 220 to 222 °C
SKOV3 cells [2]
  IC50: 13.7 ± 0.45 µM
MDA-MB-231 cells [3]
  IC50: 16.4 ± 0.44 µM

## COc1ccc(NC(=O)CSc2nnc(Cn3c(-c4ccc(Cl)cc4Cl)nc4ccccc43)o2)cc1 [Compound 16, 2-[(5-{[2-(2,4-Dichlorophenyl)-1H-benzo[d]imidazol-1-yl]methyl}-1,3,4-oxadiazol-2-yl)thio]-N-(4-Methoxyphenyl)acetamide]
EGFR kinase
  IC50: 1.09 ± 0.011 µM
A549 cells [1]
  IC50: 7.83 ± 0.35 µM
other
  melting point: 195 to 197 °C
SKOV3 cells [2]
  IC50: 8.13 ± 0.28 µM
MDA-MB-231 cells [3]
  IC50: 10.5 ± 0.88 µM

## COC(=O)c1ccccc1NC(=O)CSc1nnc(Cn2c(-c3ccc(Cl)cc3Cl)nc3ccccc32)o1 [Compound 17, Methyl 2-{2-[(5-{[2-(2,4-Dichlorophenyl)-1H-benzo[d]imidazol-1-yl]methyl}-1,3,4-oxadiazol-2-yl)thio]acetamido}benzoate]
EGFR kinase
  IC50: 1.54 ± 0.026 µM
A549 cells [1]
  IC50: 18 ± 0.87 µM
other
  melting point: 176 to 178 °C
SKOV3 cells [2]
  IC50: 12.2 ± 0.35 µM
MDA-MB-231 cells [3]
  IC50: 11.9 ± 0.91 µM

## C#Cc1cccc(Nc2ncnc3cc(OCCOC)c(OCCOC)cc23)c1 [Erlotinib, erlotinib]
Hepatocellular carcinoma
  cell cycle arrest phase: G1/S checkpoint
[10]
  cell cycle arrest phase: G0/G1 phase
Esophageal cancer
  cell cycle arrest phase: G1/G0 phase

## COc1cccc2c1C(=O)c1c(O)c3c(c(O)c1C2=O)C[C@@](O)(C(=O)CO)C[C@@H]3O[C@H]1C[C@H](N)[C@H](O)[C@H](C)O1 [doxorubicin, reference compound]
A549 cells [1]
  IC50: 5.85 ± 0.61 µM
SKOV3 cells [2]
  IC50: 8.65 ± 0.37 µM
MDA-MB-231 cells [3]
  IC50: 4.76 ± 0.44 µM
